Legend:
[1] = tested on: splenic NK, B and T cells; assay: Immunosuppression effects in mouse splenic natural killer (NK) cells; format: in vivo, Balb/C mice
Protocol: Assay 8: Immunosuppression Effects in Mouse Splenic Natural Killer (NK) Cells Depletion of mouse splenic cells is an experimental model of immunosuppression (Kudlacz et al., Am. J. of Transplantation, 2004, 4, 51-57). […] Adult male Balb/C mice (12-14 weeks of age) from Harlan were used for the study. […] Spleens were harvested 1 or 2 h post last dose and crushed immediately for cell subtype staining. Prior to fixation, fluorophore-labelled antibodies for CD19 (FITC; B cells), CD3e (PE; pan T cells) and DX5 (APC; NK cells) were incubated with splenocyte samples from each animal to allow for simultaneous, multiple subtype % analysis on the flow cytometer. The number of total spleen cells for each animal was measured by Scepter™ 2.0 Handheld Automated Cell Counter. The absolute number of lymphocyte subtype population (e.g., splenic B, T and NK cells) was calculated from the percentage of each subtype times total spleen cells for each animal. A one way ANOVA, with Dunnett's post hoc test, was used to compare the splenic lymphocytes number of the vehicle and test compound groups. The a level was set at p<0.05. Data were presented as the mean±SEM for each group.

[2] = tested on: oxazolone-induced colitis; assay: Mouse model of oxazolone-induced colitis; format: in vivo, BALB/C mice; conditions: PO, 1, 3, and/or 10 mg/kg BID (doses up to 10 mg/kg BID)
Protocol: Assay 7: Mouse Model of Oxazalone-Induced Colitis
Oxazolone-induced colitis is an experimental model that has a histological resemblance to human ulcerative colitis (Heller et al. Immunology, 2002, 17, 629-638). Adult BALB/C mice from Harlan were used in the assay. On day 1, animals were lightly anesthetized with isoflurane and the hairs between the shoulder were carefully removed before oxazolone (4%, 150 μL, 4:1 acetone:olive oil formulation) or vehicle solution was slowly applied for skin sensitization. Seven days after skin sensitization, the mice were fasted overnight, anesthetized with isoflurane inhalation, and a 1 mL syringe equipped with a 3.5-F catheter, filled with oxazolone solution, was inserted carefully about 4 cm into the colon of the mouse. Following insertion, 50 μL of the oxazolone solution (1%, 1:1 ethanol:water formulation) was injected very slowly (over 30 sec using an injection pump) into the colon. The catheter was removed and the mice were held vertically (head down) for 2 min to ensure that the entire oxazolone solution remained inside the colon. Drug treatment (PO, BID or TID) or vehicle was initiated a day prior to the oxazolone intrarectal (IR) challenge. Two-day post oxazolone intrarectal challenge, the Disease Activity Index (DAI) was assessed by treatment-blinded experimenters for each mouse according to the criteria score: stool consistency score (0, normal; 2, loose; 4, diarrhea), gross bleeding score (0, absence; 2, blood tinged; 4, presence), and weight loss score (0, none; 1, 1%-5%; 2, 5%-10^%; 3, 10%-20%; 4, more than 20%); DAI=average of (stool consistency score+gross bleeding score+weight loss score).
Selected compounds of the invention were tested in the assay. Efficacy in the model is evidenced by a decrease in DAI score as compared with the score from vehicle treated animals.

[3] = Pharmacokinetics in plasma and the GI tract in rats; format: in vivo, Sprague Dawley rats; conditions: oral dosing in preclinical species
Protocol: Assay 6: Pharmacokinetics in Plasma and the GI Tract in Rats and Dogs A test compound was dosed to male Sprague Dawley rats (n=3) as described in Assay 5. […] At all time points, the plasma concentration was below the limit of quantitation of 0.001 μg/mL.

[4] = First in human study of safety, tolerability and pharmacokinetics in healthy subjects; format: in vivo; conditions: by comparison to other orally administered compounds
Protocol: Assay 9: First in Human Study to Evaluate the Safety, Tolerability and Pharmacokinetics in Healthy Subjects
The compound of Example 1 was evaluated in a double-blinded, randomized, placebo-controlled, single ascending dose (SAD) and multiple ascending dose (MAD) study of safety, tolerability, and pharmacokinetics in healthy subjects. Pharmacokinetic samples were collected up to 72 hours post the final dose in both the SAD study (after the first dose) and MAD study (after 14 days of once-daily dosing). The SAD study enrolled 5 cohorts and the MAD study enrolled 4 cohorts totaling 72 subjects, of which 71 completed the dosing period.
Plasma pharmacokinetic (PK) parameters were determined by non-compartmental analysis using WinNonLin Version 6.4.0 (Pharsight, St Louis, Mo.). The plasma PK parameter presented here is:
Cmax: maximum concentration in plasma

Structure (SMILES): Cc1cc(Nc2cc3ncccc3c(N[C@@H]3C[C@H]4CC[C@@H](C3)N4CCC#N)n2)n[nH]1 [Example 1, 3-((1R,3s,5S)-3-((7-((5-methyl-1H-pyrazol-3-yl)amino)-1,6-naphthyridin-5-yl)amino)-8-azabicyclo[3.2.1]octan-8-yl)propanenitrile]
- effect of immunosuppression ([1]; mice, same dose required for efficacy in the oxazolone model): minimal effect
- B and T cell populations (spleen) ([1]; mouse, PO BID three days): No treatment effect
- splenic NK cell counts ([1]; mouse, PO BID three days, tofacitinib 30 mg/kg, Example 1 up to 100 mg/kg): unaffected
- DAI score as compared with vehicle treated animals [2]: statistically significant decrease
- exposure throughout the gastrointestinal tract versus exposure in plasma [3]: significantly higher exposure
- oral bioavailability [4]: very low
